Reference: patent US6875771B2, “Pyridopyrimidine derivatives as 5-HT6 antagonists” (Bristol-Myers Squibb Company, priority 2002, dated 2005)

Biological target: T1, human 5-HT6 receptor (Homo sapiens, UniProt P50406)
T1 construct: expressed in transfected cells
Assay: Radioligand binding at the 5-HT6 receptor (3H-LSD displacement)
Conditions: inhibition of 3H-LSD (1.6 nM) binding; membranes of cell line stably expressing human 5-HT6 receptor; 60 minutes at 37° C.
Method: Radioligand Binding at the 5-HT6 Receptor
Compounds of the present invention were evaluated using a cell line that stably expresses the human 5-HT6 receptor. Membranes prepared from the cell line were incubated with 3H-LSD (1.6 nM) in the presence of increasing concentrations (10^−10 to 10^−6 M) of test compounds for 60 minutes at 37° C. The reaction was terminated by vacuum filtration of the membranes and washing of the filters with assay buffer. Radioactivity retained on the filters was determined using liquid scintillation spectrometry. The potency of the test compound to inhibit 3H-LSD binding to the 5-HT6 receptor was defined as the concentration of compound required to inhibit 50% (IC50) of radioligand binding as determined by computer assisted analysis of the data. Clozapine was used as an internal standard for comparison.

T1 sequence (P50406 whole entry): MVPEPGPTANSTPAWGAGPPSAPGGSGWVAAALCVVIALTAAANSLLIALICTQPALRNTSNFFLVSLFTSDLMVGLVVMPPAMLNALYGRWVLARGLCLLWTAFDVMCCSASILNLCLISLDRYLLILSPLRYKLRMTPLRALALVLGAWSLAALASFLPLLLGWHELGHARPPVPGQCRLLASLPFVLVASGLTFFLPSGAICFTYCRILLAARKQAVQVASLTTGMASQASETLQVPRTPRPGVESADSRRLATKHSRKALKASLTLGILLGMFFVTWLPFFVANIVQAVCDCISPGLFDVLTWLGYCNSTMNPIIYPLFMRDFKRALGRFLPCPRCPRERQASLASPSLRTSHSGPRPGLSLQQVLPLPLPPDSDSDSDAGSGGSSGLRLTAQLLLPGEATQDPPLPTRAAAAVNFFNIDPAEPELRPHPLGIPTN

CSc1nc2ccccn2c(=N)c1S(=O)(=O)c1ccc(Cl)cc1 [Example 1, 3-(4-Chloro-benzenesulfonyl)-2-methylsulfanyl-pyrido[1,2-a]pyrimidin-4-ylideneamine] and CSc1nc2ccccn2c(=N)c1S(=O)(=O)c1ccc(F)cc1 [Example 5, 3-(4-Fluoro-benzenesulfonyl)-2-methylsulfanyl-pyrido[1,2-a]pyrimidin-4-ylideneamine] cannot be ordered by IC50: less than 20 nM for the first, less than 20 nM for the second.

First: CSc1nc2ccccn2c(=N)c1S(=O)(=O)c1ccccc1 [Example 2, 3-Benzenesulfonyl-2-methylsulfanyl-pyrido[1,2-a]pyrimidin-4-ylideneamine]
Second: CSc1nc2ccccn2c(=O)c1S(=O)(=O)c1ccccc1 [Example 35, 3-Benzenesulfonyl-2-methylsulfanyl-pyrido[1,2-a]pyrimidin-4-one]
The IC50 of the first is lower: less than 20 nM for the first, 50 to 100 nM for the second.

First: CSc1nc2ccccn2c(=N)c1S(=O)(=O)c1ccc2ccccc2c1 [Example 3, 2-Methylsulfanyl-3-(naphthalene-2-sulfonyl)-pyrido[2-a]pyrimidin-4-ylideneamine]
Second: CSc1nc2ccccn2c(=N)c1S(=O)(=O)c1ccc(Cl)c(Cl)c1 [Example 6, 3-(3,4-Dichloro-benzenesulfonyl)-2-methylsulfanyl-pyrido[1,2-a]pyrimidin-4-ylideneamine]
The IC50 of the first is higher: 50 to 100 nM for the first, less than 20 nM for the second.

CSc1nc2ccccn2c(=N)c1S(=O)(=O)c1cc(C)c(Cl)cc1C [Example 4, 3-(2,5-Dimethyl-4-Chloro-benzenesulfonyl)-2-methylsulfanyl-pyrido[1,2-a]pyrimidin-4-ylideneamine] and CSc1nc2ccccn2c(=N)c1S(=O)(=O)c1ccccc1Cl [Example 7, 3-(2-Chloro-benzenesulfonyl)-2-methylsulfanyl-pyrido[1,2-a]pyrimidin-4-ylideneamine] cannot be ordered by IC50: less than 20 nM for the first, less than 20 nM for the second.

Compared with CSc1nc2ccccn2c(=N)c1S(=O)(=O)c1ccc(C(C)(C)C)cc1 [Example 8, 3-(4-t-Butyl-benzenesulfonyl)-2-methylsulfanyl-pyrido[1,2-a]pyrimidin-4-ylideneamine], CSc1nc2ccccn2c(=N)c1S(=O)(=O)c1ccc(OC(F)(F)F)cc1 [Example 9, 3-(4-Trifluoromethoxy-benzenesulfonyl)-2-methylsulfanyl-pyrido[1,2-a]pyrimidin-4-ylideneamine] is higher in IC50: 50 to 100 nM for the first, 100 to 1000 nM for the second. The first is the more potent here.

CSc1nc2c(C)cccn2c(=N)c1S(=O)(=O)c1ccccc1 [Example 10, 3-Benzenesulfonyl-9-methyl-2-methylsulfanyl-pyrido[1,2-a]pyrimidin-4-ylideneamine] and CSc1nc2c(C)cc(Br)cn2c(=N)c1S(=O)(=O)c1ccccc1 [Example 16, 3-Benzenesulfonyl-7-bromo-9-methyl-2-methylsulfanyl-pyrido[1,2-a]pyrimidin-4-ylideneamine] cannot be ordered by IC50: less than 20 nM for the first, less than 20 nM for the second.

Compared with CSc1nc2cc(C)ccn2c(=N)c1S(=O)(=O)c1ccccc1 [Example 11, 3-Benzenesulfonyl-8-methyl-2-methylsulfanyl-pyrido[1,2-a]pyrimidin-4-ylideneamine], CCc1ccn2c(=N)c(S(=O)(=O)c3ccccc3)c(SC)nc2c1 [Example 17, 3-Benzenesulfonyl-8-ethyl-2-methylsulfanyl-pyrido[1,2-a]pyrimidin-4-ylideneamine] is higher in IC50: less than 20 nM for the first, 50 to 100 nM for the second. The first is the more potent here.

CSc1nc2ccc(Br)cn2c(=N)c1S(=O)(=O)c1ccccc1 [Example 12, 3-Benzenesulfonyl-7-bromo-2-methylsulfanyl-pyrido[1,2-a]pyrimidin-4-ylideneamine] and CSc1nc2ccc(Cl)cn2c(=N)c1S(=O)(=O)c1ccccc1 [Example 13, 3-Benzenesulfonyl-7-chloro-2-methylsulfanyl-pyrido[1,2-a]pyrimidin-4-ylideneamine] cannot be ordered by IC50: less than 20 nM for the first, less than 20 nM for the second.

CSc1nc2ccc(C)cn2c(=N)c1S(=O)(=O)c1ccccc1 [Example 14, 3-Benzenesulfonyl-7-methyl-2-methylsulfanyl-pyrido[1,2-a]pyrimidin-4-ylideneamine] and CSc1nc2ccc(F)cn2c(=N)c1S(=O)(=O)c1ccccc1 [Example 21, 3-Benzenesulfonyl-7-fluoro-2-methylsulfanyl-pyrido[1,2-a]pyrimidin-4-ylideneamine] cannot be ordered by IC50: less than 20 nM for the first, less than 20 nM for the second.

First: CSc1nc2c(Br)cc(C)cn2c(=N)c1S(=O)(=O)c1ccccc1 [Example 15, 3-Benzenesulfonyl-9-bromo-7-methyl-2-methylsulfanyl-pyrido[1,2-a]pyrimidin-4-ylideneamine]
Second: CSc1nc2c(C)cc(Cc3ccccc3)cn2c(=N)c1S(=O)(=O)c1ccccc1 [Example 20, 3-Benzenesulfonyl-7-benzyl-9-methyl-2-methylsulfanyl-pyrido[1,2-a]pyrimidin-4-ylideneamine]
The IC50 of the first is higher: 100 to 1000 nM for the first, 50 to 100 nM for the second. The second is the more potent here.

First: CCCc1ccn2c(=N)c(S(=O)(=O)c3ccccc3)c(SC)nc2c1 [Example 18, 3-Benzenesulfonyl-2-methylsulfanyl-8-propyl-pyrido[1,2-a]pyrimidin-4-ylideneamine]
Second: CSc1nc2ccc(C(N)=O)cn2c(=N)c1S(=O)(=O)c1ccccc1 [Example 25, 3-Benzenesulfonyl-4-imino-2-methylsulfanyl-4H-pyrido[1,2-a]pyrimidine-7-carboxylic acid amide]
The IC50 of the first is higher: 100 to 1000 nM for the first, less than 20 nM for the second. The second is the more potent here.

First: COC(=O)c1ccc2nc(SC)c(S(=O)(=O)c3ccccc3)c(=N)n2c1 [Example 19, 3-Benzenesulfonyl-4-imino-2-methylsulfanyl-4H-pyrido[1,2-a]pyrimidine-7-carboxylic acid methyl ester]
Second: CSc1nc2ccccn2c(=NC(C)=O)c1S(=O)(=O)c1ccccc1 [Example 34, N-(3-Benzenesulfonyl-2-methylsulfanyl-pyrido[1,2-a]pyrimidin-4-ylidene)-acetamide]
The IC50 of the first is higher: 100 to 1000 nM for the first, 50 to 100 nM for the second.

Compared with CSc1nc2c(OCc3ccccc3)cccn2c(=N)c1S(=O)(=O)c1ccccc1 [Example 22, 3-Benzenesulfonyl-9-benzyloxy-2-methylsulfanyl-pyrido[1,2-a]pyrimidin-4-ylideneamine], CSc1nc2c3ccccc3ccn2c(=N)c1S(=O)(=O)c1ccccc1 [Example 23, 3-Benzenesulfonyl-2-methylsulfanyl-pyrimido[2,1-a]isoquinolin-4-ylideneamine] is lower in IC50: 100 to 1000 nM for the first, 50 to 100 nM for the second.

First: CSc1nc2c3ncccc3ccn2c(=N)c1S(=O)(=O)c1ccccc1 [Example 24, 7-Benzenesulfonyl-6-methylsulfanyl-4,5,8a-triaza-phenanthren-8-ylideneamine]
Second: CNc1nc2ccccn2c(=N)c1S(=O)(=O)c1ccccc1 [Example 26]
The IC50 of the first is higher: 50 to 100 nM for the first, less than 20 nM for the second. The second is the more potent here.

CCNc1nc2ccccn2c(=N)c1S(=O)(=O)c1ccccc1 [Example 27, 3-(Benzenesulfonyl-4-imine-4H-pyrido[1,2-a]pyrimidin-2-yl)-ethyl-amine] and N=c1c(S(=O)(=O)c2ccccc2)c(NCCO)nc2ccccn12 [Example 29, 2-(3-Benzenesulfonyl-4-imino-4H-pyrido[1,2-a]pyrimidin-2-ylamino)-ethanol] cannot be ordered by IC50: less than 20 nM for the first, less than 20 nM for the second.

First: Cc1ccc(Nc2nc3ccc(C)cn3c(=N)c2S(=O)(=O)c2ccccc2)nc1 [Example 28]
Second: CCOc1nc2ccccn2c(=N)c1S(=O)(=O)c1ccccc1 [Example 31, 3-Benzenesulfonyl-2-ethoxy-pyrido[1,2-a]pyrimidin-4-ylideneamine]
The IC50 of the first is higher: 50 to 100 nM for the first, less than 20 nM for the second.

First: COc1nc2ccccn2c(=N)c1S(=O)(=O)c1ccccc1 [Example 30, 3-Benzenesulfonyl-2-methoxy-pyrido[1,2-a]pyrimidin-4-ylideneamine]
Second: C[S+]([O-])c1nc2ccccn2c(=N)c1S(=O)(=O)c1ccccc1 (centres unmarked) [Example 32, 3-Benzenesulfonyl-2-methanesulfinyl-pyrido[1,2-a]pyrimidin-4-ylideneamine]
The IC50 of the first is lower: less than 20 nM for the first, 100 to 1000 nM for the second. The first is the more potent here.

CN=c1c(S(=O)(=O)c2ccccc2)c(SC)nc2ccccn12 [Example 33] showed an IC50 of 100 to 1000 nM.
